Source: ChEMBL document CHEMBL5223068, “Novel thiobarbiturates as potent urease inhibitors with potential antibacterial activity: Design, synthesis, radiolabeling and biodistribution study” (Bioorg Med Chem, 2020)
Values after ≈ are worked out from the molar mass of the structure shown.

What was measured:
[1] = tested on: Escherichia coli; assay: Antibacterial activity against Escherichia coli incubated for 24 to 48 hrs; type: functional; conditions: time 24-48 hrs
[2] = Inhibition of urease (unknown origin) incubated for 30 mins by microplate reader based analysis
[3] = tested on: Klebsiella pneumoniae; assay: Antibacterial activity against Klebsiella pneumoniae ATCC 700603 incubated for 18 to 24 hrs by broth microdilution assay; type: functional; conditions: time 18-24 hrs
[4] = tested on: Proteus vulgaris; assay: Antibacterial activity against Proteus vulgaris ATCC 13315 incubated for 18 to 24 hrs by broth microdilution assay; type: functional; conditions: time 18-24 hrs
[5] = tested on: Klebsiella pneumoniae; assay: Antibacterial activity against clinical isolate Klebsiella pneumoniae incubated for 18 to 24 hrs by broth microdilution assay; type: functional; conditions: time 18-24 hrs
[6] = Inhibition of urease (unknown origin) assessed as reduction on ammonia production incubated for 15 mins by indophenol reagent based microplate reader assay
[7] = tested on: Proteus mirabilis; assay: Antibacterial activity against clinical isolate Proteus mirabilis incubated for 18 to 24 hrs by broth microdilution assay; type: functional; conditions: time 18-24 hrs
[8] = Biodistribution in Swiss albino muscle infected mouse assessed as ratio of infected muscle to normal muscle measured at all time intervals; type: ADME, organism-based, Muscle tissue; conditions: in vivo
[9] = Drug uptake in Swiss albino muscle infected mouse kidney measured upto 180 mins; type: ADME, tissue-based; conditions: in vivo, 3 h
[10] = Biodistribution in Swiss albino muscle infected mouse assessed as ratio of infected muscle to normal muscle measured after 30 mins post injection; type: ADME, organism-based, Muscle tissue; conditions: in vivo, 0.5 h

SMILES: O=C1C(C(=O)C(F)(F)F)C(=O)N(c2ccc(-c3ncc(-c4ccccc4)[nH]3)cc2)C(=S)N1c1ccc(Cl)cc1 (stereo unspecified)
- MIC [1]: ≤ 6.25 µg/mL

SMILES: NC(=O)NNC(=O)CC1C(=O)NC(=S)NC1=O
- IC50 [2]: 27.1 µM
- MIC [3]: 31.2 µg/mL (≈ 121 µM)
- MIC [4]: 16 µg/mL (≈ 61.7 µM)
- MIC [5]: 62.5 µg/mL (≈ 241 µM)

SMILES: O=C(CC1C(=O)NC(=S)NC1=O)Nc1ccc(F)cc1
- IC50 [2]: 44.3 µM

SMILES: CCN1C(=O)C(C(c2ccccc2)C2C(=O)N(CC)C(=S)N(CC)C2=O)C(=O)N(CC)C1=S
- IC50 [6]: 7.45 µM

SMILES: Cc1ccc(NC(=O)CC2C(=O)NC(=S)NC2=O)c(C)c1
- IC50 [2]: 75.4 µM

SMILES: Cc1ccccc1NC(=O)CC1C(=O)NC(=S)NC1=O
- IC50 [2]: 52.1 µM

SMILES: CC(C)CNC(=O)CC1C(=O)NC(=S)NC1=O
- IC50 [2]: 16.9 µM

SMILES: CCCNC(=O)CC1C(=O)NC(=S)NC1=O
- IC50 [2]: 11 µM

SMILES: O=C(CC1C(=O)NC(=S)NC1=O)N/N=C/c1ccccc1
- IC50 [2]: 54.4 µM

SMILES: Cc1ccc(/C=N/NC(=O)CC2C(=O)NC(=S)NC2=O)cc1
- IC50 [2]: 67.7 µM

SMILES: CCOC(=O)/C(=C\N(C)C)C1C(=O)NC(=S)NC1=O
- IC50 [2]: 13.6 µM
- MIC [3]: 31.2 µg/mL (≈ 110 µM)
- MIC [7]: 15 µg/mL (≈ 52.6 µM)
- MIC [5]: 62.5 µg/mL (≈ 219 µM)

SMILES: O=C(CC1C(=O)NC(=S)NC1=O)NCCNC(=O)CC1C(=O)NC(=S)NC1=O
- IC50 [2]: 29.8 µM
- MIC [5]: 62.5 µg/mL (≈ 146 µM)

SMILES: O=C1NC(=S)NC(=O)C1CC(=O)N1CCOCC1
- IC50 [2]: 8.21 µM
- MIC [3]: 62.5 µg/mL (≈ 230 µM)
- MIC [7]: 62.5 µg/mL (≈ 230 µM)
- Ratio [8]: > 1
- MIC [4]: 62.5 µg/mL (≈ 230 µM)
- Drug uptake [9]: Active
- MIC [5]: 62.5 µg/mL (≈ 230 µM)
- Ratio [10]: 3.72

SMILES: Cc1cccc(NC(=O)CC2C(=O)NC(=S)NC2=O)c1
- IC50 [2]: 76.5 µM

SMILES: O=C(CC1C(=O)NC(=S)NC1=O)OCc1ccccc1
- IC50 [2]: 74.7 µM
- MIC [3]: 125 µg/mL (≈ 428 µM)

SMILES: CCOC(=O)CC1C(=O)NC(=S)NC1=O
- IC50 [2]: 10.1 µM
- MIC [3]: 62.5 µg/mL (≈ 271 µM)
- MIC [4]: 31.2 µg/mL (≈ 136 µM)
- MIC [5]: 31.2 µg/mL (≈ 136 µM)

SMILES: O=C(CC1C(=O)NC(=S)NC1=O)N/N=C/c1ccccc1O
- IC50 [2]: 92.9 µM

SMILES: COC(=O)c1ccc(NC(=O)CC2C(=O)NC(=S)NC2=O)cc1
- IC50 [2]: 22.9 µM

SMILES: Cc1cccc(NC(=O)CC2C(=O)NC(=S)NC2=O)c1C
- IC50 [2]: 71 µM

SMILES: O=C(CC1C(=O)NC(=S)NC1=O)Nc1ccccc1
- IC50 [2]: 20.8 µM

SMILES: NNC(=O)CC1C(=O)NC(=S)NC1=O
- IC50 [2]: 60.3 µM
- MIC [3]: 125 µg/mL (≈ 578 µM)

SMILES: CC1=C(C(=O)O)N2C(=O)[C@@H](NC(=O)[C@H](N)c3ccccc3)[C@H]2SC1 [CEPHALEXIN ANHYDROUS]
- MIC [3]: 125 µg/mL (≈ 360 µM)
- MIC [7]: 125 µg/mL (≈ 360 µM)
- MIC [4]: 125 µg/mL (≈ 360 µM)
- MIC [5]: > 250 µg/mL

SMILES: NC(N)=S [THIOUREA]
- IC50 [2]: 20 µM
- IC50 [6]: ≤ 21.1 µM
